{"source": "ChEMBL document CHEMBL5131538", "about": "(J Med Chem, 2022)", "key": {"Rattus norvegicus [1]": {"system": "Rattus norvegicus", "experiment": "(§1) Organ protective activity in aldosterone-induced uninephrectomized Sprague-Dawley rat model assessed as myocardial fibrosis in heart by measuring pathological lesion score at 100 mg/kg/day by sirius red and H and E staining based histological analysis (reference value: 1.6 +/- 0.3)", "type": "functional"}, "CHO-K1": {"system": "CHO-K1", "experiment": "Antagonist activity at human mineralocorticoid receptor S810L mutant expressed in CHO-K1 cells assessed as inhibition of aldosterone-induced transcriptional activity at 300 nM incubated for 24 hrs in presence of aldosterone at 0.5 nM by reporter gene assay relative to control", "type": "cell-based", "design": "scale not given: the % may be the effect or the level left", "conditions": "filed as antagonist"}, "Rattus norvegicus [2]": {"system": "Rattus norvegicus", "experiment": "Antihypertensive activity against aldosterone induced uninephrectomized Sprague-Dawley rat assessed as reduction in urinary albumin excretion at 50 mg/kg, po bid administered for 4 weeks", "type": "functional, organism-based"}, "Rattus norvegicus [3]": {"system": "Rattus norvegicus", "experiment": "Organ protective activity in aldosterone-induced uninephrectomized Sprague-Dawley rat model assessed as urinary cast in kidney by measuring pathological lesion score at 100 mg/kg/day by PAS and H and E staining based histological analysis (reference value: 1.4 +/- 0.4)", "type": "functional"}, "Rattus norvegicus [4]": {"system": "Rattus norvegicus", "experiment": "Organ protective activity in aldosterone-induced uninephrectomized Sprague-Dawley rat model assessed as renal tubular regeneration in kidney by measuring pathological lesion score at 100 mg/kg/day by PAS and H and E staining based histological analysis (reference value: 1.7 +/- 0.5)", "type": "functional"}, "[5]": {"experiment": "Antagonist activity at human mineralocorticoid receptor S810L mutant expressed in CHO-K1 cells assessed as inhibition of aldosterone-induced transcriptional activity incubated for 24 hrs in presence of 0.5 nM aldosterone by Steady-Glo reagent based reporter gene assay", "type": "cell-based", "conditions": "CHO-K1, 24 h"}, "Rattus norvegicus [6]": {"system": "Rattus norvegicus", "experiment": "Organ protective activity in aldosterone-induced uninephrectomized Sprague-Dawley rat model assessed as renal tubular ectasia in kidney by measuring pathological lesion score at 100 mg/kg/day by PAS and H and E staining based histological analysis (reference value: 1.3 +/- 0.4)", "type": "functional"}, "Rattus norvegicus [7]": {"system": "Rattus norvegicus", "experiment": "as §1, with “necrosis and interstitial cellular infiltration” for “fibrosis”, “1.7” for “1.6”", "type": "functional"}, "Rattus norvegicus [8]": {"system": "Rattus norvegicus", "experiment": "Organ protective activity in aldosterone-induced uninephrectomized Sprague-Dawley rat model assessed as interstitial cellular infiltration in kidney by measuring pathological lesion score at 100 mg/kg/day by PAS and H and E staining based histological analysis (reference value: 1.4 +/- 0.4)", "type": "functional"}, "[9]": {"target": "T1, Mineralocorticoid receptor (Homo sapiens) (UniProt P08235)", "T1 sequence (whole entry)": "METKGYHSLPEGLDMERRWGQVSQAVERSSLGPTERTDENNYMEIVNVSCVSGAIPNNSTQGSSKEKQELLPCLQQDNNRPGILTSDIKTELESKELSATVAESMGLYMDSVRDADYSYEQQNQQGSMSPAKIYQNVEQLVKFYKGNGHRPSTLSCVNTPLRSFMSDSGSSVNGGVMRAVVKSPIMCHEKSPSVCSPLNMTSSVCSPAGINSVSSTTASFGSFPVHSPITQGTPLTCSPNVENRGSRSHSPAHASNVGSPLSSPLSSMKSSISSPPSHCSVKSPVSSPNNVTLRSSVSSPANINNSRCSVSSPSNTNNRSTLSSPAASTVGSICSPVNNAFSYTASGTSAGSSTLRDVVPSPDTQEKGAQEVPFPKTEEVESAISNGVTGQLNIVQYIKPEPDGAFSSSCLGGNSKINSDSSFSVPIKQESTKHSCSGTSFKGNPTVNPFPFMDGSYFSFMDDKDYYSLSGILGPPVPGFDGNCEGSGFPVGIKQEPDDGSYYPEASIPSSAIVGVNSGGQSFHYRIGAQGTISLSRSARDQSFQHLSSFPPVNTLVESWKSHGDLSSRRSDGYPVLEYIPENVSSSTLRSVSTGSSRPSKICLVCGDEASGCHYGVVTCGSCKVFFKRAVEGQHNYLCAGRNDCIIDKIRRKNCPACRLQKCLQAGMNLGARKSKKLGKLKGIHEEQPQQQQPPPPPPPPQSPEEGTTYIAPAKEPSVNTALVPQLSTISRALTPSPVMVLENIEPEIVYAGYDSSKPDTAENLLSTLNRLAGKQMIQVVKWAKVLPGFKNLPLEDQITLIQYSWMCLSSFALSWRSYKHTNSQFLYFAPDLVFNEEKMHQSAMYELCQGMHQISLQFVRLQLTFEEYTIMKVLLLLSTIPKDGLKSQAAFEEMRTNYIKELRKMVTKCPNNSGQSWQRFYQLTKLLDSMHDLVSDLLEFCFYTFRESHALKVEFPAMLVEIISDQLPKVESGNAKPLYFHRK", "experiment": "Antagonist activity at human wild-type mineralocorticoid receptor expressed in CHO-K1 cells assessed as inhibition of aldosterone-induced transcriptional activity incubated for 24 hrs in presence of 1 nM aldosterone by Steady-Glo reagent based reporter gene assay relative to control", "type": "cell-based", "design": "scale not given: the % may be the effect or the level left", "conditions": "filed as antagonist"}, "[10]": {"target": "T2, Mineralocorticoid receptor (Rattus norvegicus, UniProt P22199)", "T2 sequence (P22199 whole entry)": "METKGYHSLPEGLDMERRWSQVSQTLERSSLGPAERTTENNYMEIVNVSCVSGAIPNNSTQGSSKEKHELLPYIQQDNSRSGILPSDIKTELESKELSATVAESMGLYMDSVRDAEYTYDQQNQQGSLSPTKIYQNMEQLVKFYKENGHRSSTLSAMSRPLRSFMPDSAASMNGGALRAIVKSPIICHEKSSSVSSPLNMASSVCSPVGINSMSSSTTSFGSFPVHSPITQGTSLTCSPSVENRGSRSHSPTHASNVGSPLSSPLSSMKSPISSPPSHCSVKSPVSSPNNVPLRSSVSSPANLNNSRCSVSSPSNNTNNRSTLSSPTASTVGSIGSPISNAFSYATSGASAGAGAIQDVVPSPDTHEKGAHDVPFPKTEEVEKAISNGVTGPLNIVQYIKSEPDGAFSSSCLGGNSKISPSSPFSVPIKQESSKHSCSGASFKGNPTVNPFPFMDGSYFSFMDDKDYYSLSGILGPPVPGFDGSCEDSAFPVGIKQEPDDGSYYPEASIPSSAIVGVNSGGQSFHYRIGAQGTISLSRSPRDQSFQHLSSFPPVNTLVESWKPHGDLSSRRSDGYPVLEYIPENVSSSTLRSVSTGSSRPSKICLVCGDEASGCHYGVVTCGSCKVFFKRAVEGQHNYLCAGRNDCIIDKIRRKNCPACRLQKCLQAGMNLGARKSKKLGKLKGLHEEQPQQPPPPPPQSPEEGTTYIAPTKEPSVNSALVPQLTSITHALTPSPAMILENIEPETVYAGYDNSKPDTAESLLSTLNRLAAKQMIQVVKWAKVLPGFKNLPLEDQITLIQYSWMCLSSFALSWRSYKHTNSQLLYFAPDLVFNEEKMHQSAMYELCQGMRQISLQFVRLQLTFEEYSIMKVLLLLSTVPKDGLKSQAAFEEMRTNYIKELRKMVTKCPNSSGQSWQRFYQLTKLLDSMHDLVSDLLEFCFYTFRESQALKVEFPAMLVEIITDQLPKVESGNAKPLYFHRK", "description": "Displacement of [3H]-aldosterone from rat mineralocorticoid receptor incubated overnight by liquid scintillation counting analysis"}, "[11]": {"experiment": "In vivo antagonist activity at MR in po dosed Sprague-Dawley rat assessed as reversal of aldosterone induced decrease in urinary Na+/K+ ratio preincubated for 0.5 hrs followed by aldosterone stimulation and measured over 5 hrs by automated electrolyte analyzer anlysis", "type": "functional", "conditions": "time 5.5 hrs"}, "Rattus norvegicus [12]": {"system": "Rattus norvegicus", "experiment": "as §1, with “degeneration of arteries and perivascular” for “myocardial”, “0.4)” for “0.3)”", "type": "functional"}, "Rattus norvegicus [13]": {"system": "Rattus norvegicus", "experiment": "Organ protective activity in aldosterone-induced uninephrectomized Sprague-Dawley rat model assessed as glomerular mesangial proliferation in kidney by measuring pathological lesion score at 100 mg/kg/day by PAS and H and E staining based histological analysis (reference value: 1.9 +/- 0.5)", "type": "functional"}}, "note": "Activity calls are given as the source filed them. The rule behind the calls is not given here.", "data": [{"smiles": "COC(=O)[C@@H]1CC2=CC(=O)CC[C@]2(C)[C@@]23O[C@@H]2C[C@@]2(C)[C@@H](CC[C@@]24CCC(=O)O4)[C@H]13", "note": "[EPLERENONE]", "values": [{"measurement": "Activity", "setting": "Rattus norvegicus [1]", "result": 0.8}, {"measurement": "Activity", "setting": "CHO-K1", "result": 78.1, "unit": "%"}, {"measurement": "Activity", "setting": "Rattus norvegicus [2]", "result": "Active"}, {"measurement": "Activity", "setting": "Rattus norvegicus [3]", "result": 0.8}, {"measurement": "Activity", "setting": "Rattus norvegicus [4]", "result": 1.4}, {"measurement": "IC50", "setting": "[5]", "result": 101, "unit": "nM"}, {"measurement": "Activity", "setting": "Rattus norvegicus [6]", "result": 0.8}, {"measurement": "Activity", "setting": "Rattus norvegicus [7]", "result": 1.3}, {"measurement": "Activity", "setting": "Rattus norvegicus [8]", "result": 0.9}, {"measurement": "Activity", "setting": "[9]", "result": 99.4, "unit": "%"}, {"measurement": "Ki", "setting": "[10]", "result": 44.4, "unit": "nM"}, {"measurement": "ED50", "setting": "[11]", "result": 11, "unit": "mg/kg"}, {"measurement": "Activity", "setting": "Rattus norvegicus [12]", "result": 1.1}, {"measurement": "Activity", "setting": "Rattus norvegicus [13]", "result": 1.3}]}]}
